Test results from PMC6406907, “A H2AX–CARP-1 Interaction Regulates Apoptosis Signaling Following DNA Damage” (Cancers, 2019).

Test system: MDA-MB-468 cells
Experiment: Comet assay (DNA damage), MDA-MB-468
Type: cell-based, human
Set-up: Tail Moment (Mean) / Olive Tail Moment (Mean): unit not given here
Conditions: for percentage of tail DNA and tail moment: 10 μM, 1, 3, 6, 12 h, MDA-MB-468; for Tail Moment (Mean) / Olive Tail Moment (Mean) / %Tail DNA (Mean): MDA-MB-468, 10 µM; for Tail Moment (Mean): control 0.031056; for Olive Tail Moment (Mean): control 0.286711; for %Tail DNA (Mean): control 2.39052, alkaline electrophoresis, Vista Green
Description: The DNA damage assay was performed using a comet assay kit 96-well plate (Cell Bio Labs, CA, USA) as per the manufacturer’s instructions. Briefly, the cell suspension was mixed with the low-melting agarose at 1:20 ratio and added to the pre-coated 96 well plate. The cells were then subjected to lysis for 1 h, followed by alkaline electrophoresis. The plate was then washed in 70% ethanol and Vista Green DNA dye was added. The comets were visualized in Zeiss LSM780 Confocal microscope. The images were processed using Zeiss ZEN lite software and the comet parameters were measured using Open comet software.
Adriamycin is well known to induce DNA damage. Given the critical role of CARP-1 in apoptotic signaling by Adriamycin and CFM compounds, and the fact that stress-activated protein kinases (SAPKs) p38 and JNKs are activated in apoptosis signaling by CFM-4.16 [6, 12, 13, 14, 15, 16, 17, 18], we next determined whether CFM-4.16 also provoked DNA damage. We treated MDA-MB-468 and HeLa cells with a 10 μM dose of Adriamycin or CFM-4.16 for 1, 3, 6, and 12 h, followed by assessment of damaged DNA by the comet assay as described in Section 2. The presence of comet-like tails that contain the fragmented cellular DNA is a well-known marker/indicator of apoptosis. We measured the comet parameters such as percentage tail DNA and mean tail moment. […] Of note is the fact that Adriamycin and related anthracyclines intercalate between DNA bases and trap topoisomerase II (TopoII) in the double-strand cleavage form, thus introducing double-strand breaks (DSBs) due to TopoII poisoning. It remains to be clarified whether CFM-4.16 also targets cellular DNA and/or the associated DNA repair complex protein(s) to introduce DNA strand breaks, or activates caspase-activated DNAses to breakdown cellular genomic DNA.
Figure 2 Adriamycin and CFM-4.16 induce DNA damage. Cells were treated with the noted dose of respective compound for indicated time periods. Mean values for percentage tail DNA content (A,C) and Olive tail moment (B,D) for respective cells from control and treatment periods for each compound were measured using software recommended by the manufacturer of the kit for measurement of DNA damage (Cell Bio Labs, CA, USA). The columns in each chart indicate average values for respective treatment condition; bars, SE; * p ≤ 0.05.
Table S1. Adriamycin and CFM-4.16 stimulate DNA Damage in a time-dependent manner. MDA-MB-468 and HeLa cells were with noted dose of respective compound for indicated time periods.
Mean values for % tail DNA, Tail moment, and Olive tail moment for respective cells from control and treatment periods for each compound were measured using software recommended by the manufacturer of the kit for measurement of DNA damage (Cell Bio Labs, San Diego, CA, USA). The p values for each of the parameter are indicated below the mean values in each column for the treatment time period with each compound for both the cell lines.
Adriamycin (10 µM) CFM-4.16 (10 µM)

SMILES: COc1cccc2c1C(=O)c1c(O)c3c(c(O)c1C2=O)C[C@@](O)(C(=O)CO)C[C@@H]3O[C@H]1C[C@H](N)[C@H](O)[C@H](C)O1 [Adriamycin, doxorubicin, reference compound]
- percentage of tail DNA and tail moment: significantly increased
- Tail Moment (Mean) (1 h): 3.462
- Olive Tail Moment (Mean) (1 h): 2.898
- %Tail DNA (Mean) (1 h): 18.75%
- Tail Moment (Mean) (3 h): 14.01
- Olive Tail Moment (Mean) (3 h): 9.946
- %Tail DNA (Mean) (3 h): 25.75%
- Tail Moment (Mean) (6 h): 24.19
- Olive Tail Moment (Mean) (6 h): 14.06
- %Tail DNA (Mean) (6 h): 45.55%
- Tail Moment (Mean) (12 h): 43.07
- Olive Tail Moment (Mean) (12 h): 20.46
- %Tail DNA (Mean) (12 h): 63.02%

SMILES: O=C1N(Cc2ccccc2Cl)c2ccccc2C12NN=C(c1cccc(Cl)c1)S2 (centres unmarked) [CFM-4.16]
- percentage of tail DNA and tail moment: significantly increased
- Tail Moment (Mean) (1 h): 0.1504
- Olive Tail Moment (Mean) (1 h): 0.7773
- %Tail DNA (Mean) (1 h): 2.507%
- Tail Moment (Mean) (3 h): 7.45
- Olive Tail Moment (Mean) (3 h): 4.594
- %Tail DNA (Mean) (3 h): 17.24%
- Tail Moment (Mean) (6 h): 25.29
- Olive Tail Moment (Mean) (6 h): 13.06
- %Tail DNA (Mean) (6 h): 36.18%
- Tail Moment (Mean) (12 h): 45.02
- Olive Tail Moment (Mean) (12 h): 24.23
- %Tail DNA (Mean) (12 h): 55.6%
